Measured values published in patent US20250129092A1, “COMPOUNDS USEFUL IN MODULATION OF AHR SIGNALLING” (JAGUAHR THERAPEUTICS PTE LTD, priority 2021, published 2025).

Legend:
[1] = target: T1, AhR (Homo sapiens, UniProt P35869); assay: AhR antagonism in U937 cells (Promega P450-Glo assay); format: cell-based; design: endogenous in cells; host or cells: U937 cells; settings: CYP1A1 activity readout (Luciferin-CEE), head names VAF347, average, read-out: U937 Antagonist pIC50-VAF347: av. pIC50 (converted)
T1 sequence (P35869 11-848): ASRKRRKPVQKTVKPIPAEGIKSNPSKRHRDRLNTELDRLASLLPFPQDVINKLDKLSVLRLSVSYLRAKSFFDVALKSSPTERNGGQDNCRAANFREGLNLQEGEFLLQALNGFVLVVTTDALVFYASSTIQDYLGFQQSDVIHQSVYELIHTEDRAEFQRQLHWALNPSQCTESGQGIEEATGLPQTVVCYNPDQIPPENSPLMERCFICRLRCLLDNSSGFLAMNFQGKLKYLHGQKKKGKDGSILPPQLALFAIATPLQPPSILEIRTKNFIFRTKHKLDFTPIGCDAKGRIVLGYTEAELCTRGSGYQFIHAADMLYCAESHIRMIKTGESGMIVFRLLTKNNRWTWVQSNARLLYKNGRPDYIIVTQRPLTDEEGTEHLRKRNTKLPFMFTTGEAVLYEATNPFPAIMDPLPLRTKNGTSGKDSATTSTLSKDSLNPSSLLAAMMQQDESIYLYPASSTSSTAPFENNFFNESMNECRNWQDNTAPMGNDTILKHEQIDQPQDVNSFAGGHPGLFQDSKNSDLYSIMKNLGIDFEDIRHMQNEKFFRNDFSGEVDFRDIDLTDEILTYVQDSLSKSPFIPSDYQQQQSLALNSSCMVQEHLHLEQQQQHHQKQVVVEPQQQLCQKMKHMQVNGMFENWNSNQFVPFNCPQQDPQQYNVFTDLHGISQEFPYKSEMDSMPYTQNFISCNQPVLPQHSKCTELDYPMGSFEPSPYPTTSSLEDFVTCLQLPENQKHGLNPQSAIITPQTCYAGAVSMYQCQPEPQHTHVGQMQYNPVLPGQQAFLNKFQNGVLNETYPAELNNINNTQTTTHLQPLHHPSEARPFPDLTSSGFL
Procedure: In Vitro Assay 1: AhR Antagonism in U937 Cells (Promega P450-Glo™ Assay)
AhR antagonism was assessed in LJ937 cells (myeloid lineage cell line derived from a human histiocytic lymphoma). Ligand binds the AhR in the cytoplasm, and the AhR-ligand complex translocates to the nucleus and forms a heterodimer with AhR nuclear translocator (Arnt). This complex binds the xenobiotic response element (XRE) in the 5′ upstream region of the CYP1A1 promoter, enhancing CYP1A1 expression. CYP1A1 activity is subsequently determined by assessing the conversion of Luciferin-CEE to luciferin, which in turn reacts with luciferase to produce light. The amount of light produced is directly proportional to cytochrome P450 activity. U937 cells in Ultraculture serum free media (Lonza) were plated at 100,000 cells per well in a round bottom 96 well tissue culture plate. […] The plates were then placed in an incubator at 37° C., ≥85% humidity, 5% CO2 for 24 hrs. After aspiration of the supernatant the CYP1A1 substrate Luciferin-CEE ([Final] 83 μM) was added and incubated for 3 hrs before the reaction was stopped by adding luciferin detection reagent and luminescence was read after 20 minutes.

[2] = target: T1, AhR; assay: AhR antagonism in human PBMCs - inhibition of IL-22 release; format: cell-based; design: endogenous in cells; settings: human PBMCs activated with CD3/CD28 agonist mixture, 72 hrs, IL-22 ELISA; average; read-out: hPBMC Inhibition of CD3/CD28 induced IL-22 release: av. pIC50 (converted)
From the text: In Vitro Assay 3: AhR Antagonism in Human Peripheral Blood Mononuclear Cells (PBMCs)-Inhibition of Interleukin-22 (IL-22) Release.
PBMCs were isolated from human peripheral blood using Lymphoprep™ and diluted to 1×10^6 cells per ml in RPMI media containing […] foetal bovine serum, 1% penicillin-streptomycin and 1% non essential amino acids. PBMCs were subsequently activated with 1p1 per 100,000 cells of a CD3/CD28 agonist mixture (human T Cell TransAct™ (Miltenyi Biotec)) and then plated at 100,000 cells per well in a round bottom 96 well tissue culture plate. One hour after stimulation seven concentrations of each test compound or vehicle (final [DMSO] 0.2%) were added. The plates were then placed in an incubator at 37° C., ≥85% humidity, 5% […] for 72 hrs before the media was removed and stored at −20° C. until cytokine analysis. IL-22 was measured using human IL-22 DuoSet ELISA (R&D systems) according to the manufacturer's instructions.

Row | SMILES | IC50 [1] | IC50 [2]
1 | O=c1[nH]cccc1-c1nc2c(c(NCCc3c[nH]c4ccccc34)n1)OCCN2 [Example 17, 3-[4-[2-(1H-indol-3-yl)ethylamino]-7,8-dihydro-6H-pyrimido[5,4-b][1,4]oxazin-2-yl]-1H-pyridin-2-one] | 3.8 nM | 1.66 nM
2 | Cc1ccc(-c2nc3c(c(NCCc4c[nH]c5cc(F)ccc45)n2)OCCN3)cn1 [Example 20, N-[2-(6-fluoro-1H-indol-3-yl)ethyl]-2-(6-methyl-3-pyridyl)-7,8-dihydro-6H-pyrimido[5,4-b][1,4]oxazin-4-amine] | 91.2 nM | 43.7 nM
3 | FC(F)Oc1ncccc1-c1nc2c(c(NCCc3c[nH]c4ccccc34)n1)OCCN2 [Example 22, 2-[2-(difluoromethoxy)-3-pyridyl]-N-[2-(1H-indol-3-yl)ethyl]-7,8-dihydro-6H-pyrimido[5,4-b][1,4]oxazin-4-amine] | 123 nM | > 2000 nM
4 | Cc1ncc(-c2nc3c(c(OCCc4c[nH]c5cc(F)ccc45)n2)OCCN3)s1 [Example 24, 4-[2-(6-fluoro-1H-indol-3-yl)ethoxy]-2-(2-methylthiazol-5-yl)-7,8-dihydro-6H-pyrimido[5,4-b][1,4]oxazine] | 2.63 nM | 2.88 nM
5 | C[C@H]1CNc2nc(-c3cncc(F)c3)nc(NCCc3c[nH]c4ccccc34)c2O1 [Example 29, (6S)-2-(5-fluoro-3-pyridyl)-N-[2-(1H-indol-3-yl)ethyl]-6-methyl-7,8-dihydro-6H-pyrimido[5,4-b][1,4]oxazin-4-amine] | 2.19 nM | 3.02 nM
6 | C[C@@H]1CNc2nc(-c3cncc(F)c3)nc(NCCc3c[nH]c4ccccc34)c2O1 [Example 30, (6R)-2-(5-fluoro-3-pyridyl)-N-[2-(1H-indol-3-yl)ethyl]-6-methyl-7,8-dihydro-6H-pyrimido[5,4-b][1,4]oxazin-4-amine] | 5.5 nM | 3.98 nM
7 | Fc1cncc(-c2nc(NCCc3c[nH]c4ccccc34)c3c(n2)N[C@@H](C(F)(F)F)CO3)c1 [Example 32, (7R)-2-(5-fluoro-3-pyridyl)-N-[2-(1H-indol-3-yl)ethyl]-7-(trifluoromethyl)-7,8-dihydro-6H-pyrimido[5,4-b][1,4]oxazin-4-amine] | 2.51 nM | 14.5 nM
8 | Cc1ncc(-c2nc3c(c(NC4CCc5[nH]c6cccnc6c5C4)n2)OCCN3)s1 (stereo not drawn) [Example 34, 2-(2-methylthiazol-5-yl)-N-(6,7,8,9-tetrahydro-5H-pyrido[3,2-b]indol-8-yl)-7,8-dihydro-6H-pyrimido[5,4-b][1,4]oxazin-4-amine] | > 759 nM | > 2000 nM
9 | Cc1ncc(-c2nc(N[C@@H]3CCc4[nH]c5ccccc5c4C3)c3c(n2)N(CCN(C)C)[C@H](CO)CO3)s1 [Example 36, [(7R)-8-[2-(dimethylamino)ethyl]-2-(2-methylthiazol-5-yl)-4-[[(3R)-2,3,4,9-tetrahydro-1H-carbazol-3-yl]amino]-6,7-dihydropyrimido[5,4-b][1,4]oxazin-7-yl]methanol] | > 1000 nM | 1070 nM
10 | Cc1ncc(-c2nc(N[C@@H]3CCc4[nH]c5ccccc5c4C3)c3c(n2)N(CCO)CCO3)s1 [Example 37, 2-[2-(2-methylthiazol-5-yl)-4-[[(3R)-2,3,4,9-tetrahydro-1H-carbazol-3-yl]amino]-6,7-dihydropyrimido[5,4-b][1,4]oxazin-8-yl]ethanol] | 251 nM | 123 nM
11 | CN1CCOc2c(NCCc3c[nH]c4ccccc34)nc(-c3ccc[nH]c3=O)nc21 [Example 44, 3-(4-((2-(1H-indol-3-yl)ethyl)amino)-8-methyl-7,8-dihydro-6H-pyrimido[5,4-b][1,4]oxazin-2-yl)pyridin-2 (1H)-one] | 10.2 nM | < 1.55 nM

Now from value to compound:

Row | IC50 [1] | IC50 [2] | SMILES
12 | 74.1 nM | 100 nM | Cc1ncc(-c2nc3c(c(NC4Cc5cccc6[nH]cc(c56)C4)n2)OCCN3)s1 (stereo not drawn) [Example 14, 2-(2-methylthiazol-5-yl)-N-(1,3,4,5-tetrahydrobenzo[cd]indol-4-yl)-7,8-dihydro-6H-pyrimido[5,4-b][1,4]oxazin-4-amine]
13 | 51.3 nM | 24.5 nM | Cn1cccc(-c2nc3c(c(NCCc4c[nH]c5ccccc45)n2)OCCN3)c1=O [Example 19, 3-[4-[2-(1H-indol-3-yl)ethylamino]-7,8-dihydro-6H-pyrimido[5,4-b][1,4]oxazin-2-yl]-1-methyl-pyridin-2-one]
14 | 2.75 nM | 1.45 nM | O=c1[nH]cccc1-c1nc2c(c(NCCc3c[nH]c4cc(F)ccc34)n1)OCCN2 [Example 21, 3-[4-[2-(6-fluoro-1H-indol-3-yl)ethylamino]-7,8-dihydro-6H-pyrimido[5,4-b][1,4]oxazin-2-yl]-1H-pyridin-2-one]
15 | 4.79 nM | 0.724 nM | COC[C@@H]1COc2c(NCCc3c[nH]c4ccccc34)nc(-c3ccc[nH]c3=O)nc2N1 [Example 26, (R)-3-(4-((2-(1H-indol-3-yl)ethyl)amino)-7-(methoxymethyl)-7,8-dihydro-6H-pyrimido[5,4-b][1,4]oxazin-2-yl)pyridin-2(1H)-one]
16 | 4.9 nM | 2.14 nM | O=c1[nH]cccc1-c1nc(NCCc2c[nH]c3ccccc23)c2c(n1)N[C@H](CO)CO2 [Example 27, (R)-3-(4-((2-(1H-indol-3-yl)ethyl)amino)-7-(hydroxymethyl)-7,8-dihydro-6H-pyrimido[5,4-b][1,4]oxazin-2-yl)pyridin-2 (1H)-one]
17 | 0.513 nM | 0.617 nM | COC[C@H]1COc2c(NCCc3c[nH]c4ccccc34)nc(-c3cncc(F)c3)nc2N1 [Example 28, (7S)-2-(5-fluoro-3-pyridyl)-N-[2-(1H-indol-3-yl)ethyl]-7-(methoxymethyl)-7,8-dihydro-6H-pyrimido[5,4-b][1,4]oxazin-4-amine]
18 | 14.1 nM | 13.5 nM | Cc1ncc(-c2nc(NCCc3c[nH]c4ccccc34)c3c(n2)N(C2COC2)CCO3)s1 [Example 33, N-[2-(1H-indol-3-yl)ethyl]-2-(2-methylthiazol-5-yl)-8-(oxetan-3-yl)-6,7-dihydropyrimido[5,4-b][1,4]oxazin-4-amine]
19 | > 1000 nM | 977 nM | COC[C@@H]1COc2c(N[C@@H]3CCc4[nH]c5ccccc5c4C3)nc(-c3cnc(C)s3)nc2N1CCN(C)C [Example 35, (7R)-8-[2-(dimethylamino)ethyl]-7-(methoxymethyl)-2-(2-methylthiazol-5-yl)-N-[(3R)-2,3,4,9-tetrahydro-1H-carbazol-3-yl]-6,7-dihydropyrimido[5,4-b][1,4]oxazin-4-amine]
20 | 3.8 nM | < 1.02 nM | COC[C@H]1COc2c(NCCc3c[nH]c4ccccc34)nc(-c3ccc[nH]c3=O)nc2N1 [Example 45, (S)-3-(4-((2-(1H-indol-3-yl)ethyl)amino)-7-(methoxymethyl)-7,8-dihydro-6H-pyrimido[5,4-b][1,4]oxazin-2-yl)pyridin-2(1H)-one]
21 | 0.759 nM | < 1.35 nM | COC[C@@H]1COc2c(NCCc3c[nH]c4ccccc34)nc(-c3cncc(F)c3)nc2N1 [Example 46, (7R)-2-(5-fluoro-3-pyridyl)-N-[2-(1H-indol-3-yl)ethyl]-7-(methoxymethyl)-7,8-dihydro-6H-pyrimido[5,4-b][1,4]oxazin-4-amine]
